The test system of the assay is library of barcoded yeast strains expressing toxic aggregation prone proteins, non-aggregation toxic proteins or benign control proteins. Description: Barcoded mixed pool growth competition of a yeast library under inducing conditions (galactose) with or without a small molecule, with barcodes quantified by next-generation sequencing. It counts as cell-based. As to conditions: for rescue of growth of strains expressing toxic aggregation prone proteins (barcode representation relative to no drug condition): difference >3 standard deviations vs no drug highlighted. As for the experimental part:
Several experiments were conducted in which all members of the library were mixed at equal amounts and the library was grown under non-inducing conditions (glucose) or in the presence of galactose (inducing condition) with or without a small molecule of interest. After overnight outgrowth, genomic DNA was extracted from each of the experimental conditions and barcodes were quantified.
A library of barcoded yeast and their associated genes of interest were subjected to growth under inducing conditions in the presence or absence of small molecules. In FIG. 5A, Lovastatin at 2 ug/ml was added to the outgrowth media. In FIG. 5B, Celestrol at 1 ug/ml was added to the outgrowth media. Growth in the presence of drug was normalized to the without drug condition and plotted relative to the no drug condition. […] “416” and “426” refers to the plasmid background used to express each of the genes tested.
For growth competition experiments, yeast strains each with a unique DNA barcode along with containing a plasmid encoding a control or toxic protein of interest were first grown overnight to saturation in SC-URA+glucose. The various barcoded lines were then mixed in defined ratios and passaged at a 1:1000 dilution into fresh SC-URA+glucose or SC-URA+galactose media. For experiments involving small molecules, yeast were diluted into SC-URA+galactose media containing a given small molecule of interest and allowed to grow for 36 hours before genomic DNA was extracted from the population of cells.
Yeast lysis was performed as previously described. See Lõoke, M., Kristjuhan, K. & Kristjuhan, A. Extraction of genomic DNA from yeasts for PCR-based applications. BioTechniques 50, 325-328 (2011). Briefly, 300-900 ul of overnight culture was spun down and resuspended in 300 ul of 200 mM LiAc, 1% SDS solution. Cells were then vortexed several times and incubated at 70° C. for 10-15 minutes. 900 ul of >95% ethanol was then added to the samples and they were inverted several times along with vortexing to mix the solution well. The samples were then spun at 15,000 g for 3 minutes and the supernatant was discarded. Pellets were washed 1× with 70% ethanol, spun at 15,000 g for 3 minutes and the supernatant was again removed. The pellet was then allowed to air dry for 5-10 minutes before adding in 100 ul of 10 mM Tris pH 8.5 and pipetting up and down to break up the pellet. Samples were then placed in a heating block set to 37° C. for 10 minutes, spun again at 15,000 g for 3 minutes and then the supernatant was collected and used in downstream DNA analysis.
Genomic DNA was extracted and barcoded using one of four internally barcoded forward primers, […] NNNN CACAG […]; […] NNNN GTGTT […]; […] NNNN TCTTG […]; […] NNNN AGCTC […]; in combination with the reverse primer, […]aacgccgccatccagtttaaacgag. Following PCR, the amplicons were purified and normalized using SequalPrep Normalization Plate (96) kit (Thermo Fisher). A second round of PCR was next performed using the Illumina Truseq adapters in order to allow individual samples to be identified during subsequent data analysis. The reads were aligned to a list of the 96 possible barcodes (see Ho, C. H. et al. A molecular barcoded yeast ORF library enables mode-of-action analysis of bioactive compounds. Nat. Biotechnol. 27, 369-377 (2009) using BWA. The depth of coverage for each barcode was calculated for each of the samples using a custom script and normalized to the total number of reads per sample.

Turning to `CC1=C(O)C(=O)C=C2C1=CC=C1[C@@]2(C)CC[C@@]2(C)[C@@H]3C[C@](C)(C(=O)O)CC[C@]3(C)CC[C@]12C` [Celestrol], the “rescue of growth of strains expressing toxic aggregation prone proteins (barcode representation relative to no drug condition)” value (Celestrol at 1 ug/ml in outgrowth media, FIG. 5B) was “showed an ability to rescue the growth of some of the toxic aggregation prone proteins”. Where the note is “Celestrol at 1 ug/ml, FIG. 5B”, the “change in growth of control strains expressing benign proteins (eYFP, mCherry)” value is “nor did control strains expressing benign proteins such as eYFP and mCherry exhibit a significant change in their growth”; the “rescue of strains expressing proteins that cause toxicity in yeast outside of protein aggregation” value is recorded as “none of the proteins that cause toxicity in yeast through alternative methods outside of protein aggregation showed significant rescue”.
In the case of `CC[C@H](C)C(=O)O[C@H]1C[C@@H](C)C=C2C=C[C@H](C)[C@H](CC[C@@H]3C[C@@H](O)CC(=O)O3)[C@H]21` [Lovastatin], the “rescue of growth of strains expressing toxic aggregation prone proteins (barcode representation relative to no drug condition)” value (Lovastatin at 2 ug/ml in outgrowth media, FIG. 5A) was “showed an ability to rescue the growth of some of the toxic aggregation prone proteins”. Besides, where the note is “Lovastatin at 2 ug/ml, FIG. 5A”, the “change in growth of control strains expressing benign proteins (eYFP, mCherry)” value is “nor did control strains expressing benign proteins such as eYFP and mCherry exhibit a significant change in their growth”; the “rescue of strains expressing proteins that cause toxicity in yeast outside of protein aggregation” value was “none of the proteins that cause toxicity in yeast through alternative methods outside of protein aggregation showed significant rescue”.
